The results in this text go back to patent publication US20160108049A1 (TAKEDA Gmbh, priority 2011, published 2016).

Test [1] concerns the target T1, human PDE5 (Homo sapiens, UniProt O76074).
T1 construct: from tissue; host or cells: human platelets from fresh donor blood (platelet lysate)
Put plainly: Inhibition of PDE5 activity (platelet lysate, SPA assay). The test is classed as biochemical. Particulars: 0.5 μM cGMP, read-out: PDE5 Inhibitory values measured as -logIC50 (converted). The method in brief: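 SPA readout of [3H]cGMP hydrolysis (0.5 μM, 15 min, 37 °C after 5 min preincubation), stopped with yttrium silicate beads containing IBMX. Enzyme was lysate from human platelets, used at 10–20% substrate turnover, with PDE3 (motapizone 1 μM) and PDE2 (10 nM) blockers present. IC50 values fitted non-linearly from concentration-effect curves.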

Test [2] deals with T2, PDE4B1 (Homo sapiens, UniProt Q07343).
T2 construct: made in house; host or cells: SF21 insect cells (baculovirus; virus made in SF9 cells, pCR-Bac vector)
Description: Inhibition of PDE4 activity (PDE4B1, SPA assay). Particulars: recombinant PDE4B1, 0.5 μM cAMP; read-out: PDE4B1 Inhibitory values measured as -logIC50 (converted). The test is classed as biochemical. The method in brief: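 Read-out is SPA yttrium silicate bead scintillation after IBMX-containing beads stop the reaction. Insect-cell (SF21) lysate enzyme hydrolysed 0.5 μM [3H]cAMP at pH 7.4 with 5 mM Mg2+ for 15 min after a 5 min 37 °C preincubation; IC50 fitted by non-linear regression.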

T2 sequence (Q07343 whole entry): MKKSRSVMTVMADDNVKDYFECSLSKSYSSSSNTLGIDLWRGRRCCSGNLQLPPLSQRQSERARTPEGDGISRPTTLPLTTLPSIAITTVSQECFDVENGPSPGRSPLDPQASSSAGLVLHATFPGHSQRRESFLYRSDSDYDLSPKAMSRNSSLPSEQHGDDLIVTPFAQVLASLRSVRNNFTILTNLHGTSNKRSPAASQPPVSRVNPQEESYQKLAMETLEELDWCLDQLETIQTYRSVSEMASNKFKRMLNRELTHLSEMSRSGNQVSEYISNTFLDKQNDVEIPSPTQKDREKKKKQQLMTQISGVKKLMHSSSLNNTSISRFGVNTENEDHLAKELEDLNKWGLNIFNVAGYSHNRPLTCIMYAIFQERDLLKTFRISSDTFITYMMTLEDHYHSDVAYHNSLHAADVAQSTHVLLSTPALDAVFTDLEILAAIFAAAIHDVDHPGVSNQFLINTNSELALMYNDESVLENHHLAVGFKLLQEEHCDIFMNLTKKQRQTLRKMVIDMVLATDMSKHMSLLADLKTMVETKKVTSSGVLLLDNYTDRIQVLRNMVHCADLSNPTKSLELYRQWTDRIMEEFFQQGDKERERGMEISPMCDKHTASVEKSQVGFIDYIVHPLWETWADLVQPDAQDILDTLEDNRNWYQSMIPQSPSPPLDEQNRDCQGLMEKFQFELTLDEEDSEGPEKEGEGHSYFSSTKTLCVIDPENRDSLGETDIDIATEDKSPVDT

`COc1ccc(C2=NN(C3CCN(C(=O)[C@@H](Cc4ccccc4C(F)(F)F)NC(=O)c4c(C)[nH]c5c(-c6c(OCC7CC7)ccc7c6OCO7)ncnc45)CC3)C(=O)[C@@H]3CCCC[C@H]23)cc1OC` [Example 32, 4-[5-(cyclopropylmethoxy)-1,3-benzodioxol-4-yl]-N-{(2R)-1-{4-[(4aS,8aR)-4-(3,4-dimethoxyphenyl)-1-oxo-4a,5,6,7,8,8a-hexahydrophthalazin-2(1H)-yl]piperidin-1-yl}-1-oxo-3-[2-(trifluoromethyl)phenyl]propan-2-yl}-6-methyl-5H-pyrrolo[3,2-d]pyrimidine-7-carboxamide]: the IC50 in test [1] and in test [2] was 1 to 10 nM each time.
For `COc1ccc(C2=NN(C3CCN(C(=O)[C@@H](Cc4ccccc4)NC(=O)c4c[nH]c5c(-c6c(OCC7CC7)ccc7c6OCO7)ncnc45)CC3)C(=O)C(C)(C)C2)c2c1OC(C)(C)C2` [Example 115], the IC50 is 1 to 10 nM in test [1] and less than 1 nM in test [2].
In the same order, the values of `CCC1(CC)CC(c2ccc(OC)c(OC)c2)=NN(C2CCN(C(=O)[C@@H](Cc3ccccc3)NC(=O)c3c[nH]c4c(-c5c(OCC6CC6)ccc6c5OCO6)ncnc34)CC2)C1=O` [Example 116, 4-[5-(cyclopropylmethoxy)-1,3-benzodioxol-4-yl]-N-[(2R)-1-{4-[3-(3,4-dimethoxyphenyl)-5,5-diethyl-6-oxo-5,6-dihydropyridazin-1(4H)-yl]piperidin-1-yl}-1-oxo-3-phenylpropan-2-yl]-5H-pyrrolo[3,2-d]pyrimidine-7-carboxamide] are 1 to 10 nM and 1 to 10 nM.
In the same order, the values of `COc1ccc(C2=NN(C3CCN(C(=O)[C@H](Cc4ccccn4)NC(=O)c4c[nH]c5c(-c6c(OCC7CC7)ccc7c6OCO7)ncnc45)CC3)C(=O)[C@@H]3CCCC[C@H]23)cc1OC` [Example 39, 4-[5-(cyclopropylmethoxy)-1,3-benzodioxol-4-yl]-N-[(2S)-1-{4-[(4aS,8aR)-4-(3,4-dimethoxyphenyl)-1-oxo-4a,5,6,7,8,8a-hexahydrophthalazin-2(1H)-yl]piperidin-1-yl}-1-oxo-3-(pyridin-2-yl)propan-2-yl]-5H-pyrrolo[3,2-d]pyrimidine-7-carboxamide] are less than 1 nM and less than 1 nM.
Regarding `COc1ccc(C2=NN(C3CCN(C(=O)[C@@H](CCc4ccccc4)NC(=O)c4c[nH]c5c(-c6c(OCC7CC7)ccc7c6OCO7)ncnc45)CC3)C(=O)[C@@H]3CCCC[C@H]23)cc1OC` [Example 65, 4-[5-(cyclopropylmethoxy)-1,3-benzodioxol-4-yl]-N-[(2R)-1-{4-[(4aS,8aR)-4-(3,4-dimethoxyphenyl)-1-oxo-4a,5,6,7,8,8a-hexahydrophthalazin-2(1H)-yl]piperidin-1-yl}-1-oxo-4-phenylbutan-2-yl]-5H-pyrrolo[3,2-d]pyrimidine-7-carboxamide], the IC50 in test [1] and in test [2] was less than 1 nM each time.
In the case of `COc1ccc(C2=NN(C3CCN(C(=O)[C@@H](Cc4ccccc4)NC(=O)c4c[nH]c5c(-c6c(OCC7CC7)ccc7c6OCO7)ncnc45)CC3)C(=O)C3(CCCC3)C2)cc1OC` [Example 123, 4-[5-(cyclopropylmethoxy)-1,3-benzodioxol-4-yl]-N-[(2R)-1-{4-[9-(3,4-dimethoxyphenyl)-6-oxo-7,8-diazaspiro[4.5]dec-8-en-7-yl]piperidin-1-yl}-1-oxo-3-phenylpropan-2-yl]-5H-pyrrolo[3,2-d]pyrimidine-7-carboxamide], the IC50 in test [1] and in test [2] was 1 to 10 nM in each case.
In the case of `COc1ccc(C2=NN(C3CCN(C(=O)CCNC(=O)c4c[nH]c5c(-c6c(OCC7CC7)ccc7c6OCO7)ncnc45)CC3)C(=O)[C@@H]3CCCC[C@H]23)cc1OC` [Example 76, 4-[5-(cyclopropylmethoxy)-1,3-benzodioxol-4-yl]-N-(3-{4-[(4aS,8aR)-4-(3,4-dimethoxyphenyl)-1-oxo-4a,5,6,7,8,8a-hexahydrophthalazin-2(1H)-yl]piperidin-1-yl}-3-oxopropyl)-5H-pyrrolo[3,2-d]pyrimidine-7-carboxamide], the IC50 in test [1] and in test [2] was 1 to 10 nM throughout.
